Measurements as given in patent US8952024B2, “Herbicidal pyrimidone derivatives” (E I du Pont de Nemours and Company, priority 2009, dated 2015).

How the values were obtained:
Type in all cases: in vivo
[1] = test system: velvetleaf (Abutilon theophrasti); experiment: Test A pre-/postemergence plant response
How it was run: (§1)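 Seeds planted in loam soil/sand blend; test chemicals in non-phytotoxic solvent mixture with surfactant applied as directed soil spray preemergence and, concurrently, postemergence to plants 2–10 cm tall at one- to two-leaf stage. Greenhouse ~10 days; visual injury vs untreated controls, 0 (no effect) to 100 (complete control).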

[2] = test system: wheat (Triticum aestivum); experiment: Test A pre-/postemergence plant response
How it was run: as §1

[3] = test system: giant foxtail (Setaria faberii); experiment: Test A pre-/postemergence plant response
How it was run: as §1

[4] = test system: large crabgrass (Digitaria sanguinalis); experiment: Test A pre-/postemergence plant response
How it was run: as §1

[5] = test system: morningglory (Ipomoea spp.); experiment: Test A pre-/postemergence plant response
How it was run: as §1

corn (Zea mays) = experiment: Test A pre-/postemergence plant response
How it was run: as §1

[6] = test system: canarygrass (Phalaris minor); experiment: Test B postemergence plant response
How it was run: (§2)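 Plants grown in peat/vermiculite medium were sprayed postemergence at 2–18 cm height (1- to 4-leaf stage). After 13–15 days in the greenhouse, response was rated visually against untreated controls on a 0–100 scale (0 no effect, 100 complete control).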

[7] = test system: winter barley (Hordeum vulgare); experiment: Test B postemergence plant response
How it was run: as §2

[8] = test system: chickweed (Stellaria media); experiment: Test B postemergence plant response
How it was run: as §2

[9] = test system: windgrass (Apera spica-venti); experiment: Test B postemergence plant response
How it was run: as §2

[10] = Postemergence, 125 g ai/ha, 0 to 100 scale where 0 is no effect and 100 is complete control
[11] = Postemergence, 500 g ai/ha, 0 to 100 scale, 0 = no effect, 100 = complete control, approx. ten days
[12] = Preemergence, 125 g ai/ha, 0 to 100 scale, 0 = no effect, 100 = complete control
[13] = Preemergence, 500 g ai/ha, visual injury, 0 to 100 scale (0 no effect, 100 complete control), approx. ten days
[14] = 31 g ai/ha, postemergence, scale 0 to 100, 0 is no effect, 100 is complete control
[15] = 62 g ai/ha, postemergence, 0 is no effect, 100 is complete control, 13 to 15 days
[16] = Postemergence, 125 g ai/ha, scale 0 to 100 (0 no effect, 100 complete control)
[17] = Postemergence, 250 g ai/ha, scale 0 to 100 (0 no effect, 100 complete control)

SMILES: COCCn1c(-c2cccs2)ncc(C(=O)C2=C(O)CCCC2=O)c1=O [Compound 108]
- Plant response rating, Velvetleaf [1, 10]: 100
- Plant response rating, Velvetleaf [1, 11]: 100
- Plant response rating, Velvetleaf [1, 12]: 80
- Plant response rating, Velvetleaf [1, 13]: 90
- Plant response rating, Wheat [2, 10]: 0
- Plant response rating, Wheat [2, 11]: 0
- Plant response rating, Wheat [2, 12]: 0
- Plant response rating, Wheat [2, 13]: 0
- Plant response rating, Foxtail, Giant [3, 10]: 60
- Plant response rating, Foxtail, Giant [3, 11]: 90
- Plant response rating, Foxtail, Giant [3, 12]: 30
- Plant response rating, Foxtail, Giant [3, 13]: 40
- Plant response rating, Crabgrass, Large [4, 10]: 90
- Plant response rating, Crabgrass, Large [4, 11]: 90
- Plant response rating, Crabgrass, Large [4, 12]: 70
- Plant response rating, Crabgrass, Large [4, 13]: 90
- Plant response rating, Morningglory [5, 10]: 100
- Plant response rating, Morningglory [5, 11]: 100
- Plant response rating, Morningglory [5, 12]: 80
- Plant response rating, Morningglory [5, 13]: 90
- Plant response rating, Corn (corn (Zea mays); [10]): 0
- Plant response rating, Corn (corn (Zea mays); [11]): 40
- Plant response rating, Corn (corn (Zea mays); [12]): 0
- Plant response rating, Corn (corn (Zea mays); [13]): 0
- Plant response rating, Canarygrass [6, 14]: 0
- Canarygrass plant response rating (0 to 100 scale) [6, 15]: 5
- Plant response rating, Canarygrass [6, 16]: 5
- Plant response rating, Canarygrass [6, 17]: 5
- Plant response rating, Barley [7, 14]: 0
- Barley plant response rating (0 to 100 scale) [7, 15]: 0
- Plant response rating, Barley [7, 16]: 0
- Plant response rating, Barley [7, 17]: 0
- Plant response rating, Chickweed [8, 14]: 85
- Chickweed plant response rating (0 to 100 scale) [8, 15]: 100
- Plant response rating, Chickweed [8, 16]: 100
- Plant response rating, Chickweed [8, 17]: 100
- Windgrass plant response rating (0 to 100 scale) [9, 15]: 10
- Plant response rating, Windgrass [9, 16]: 30
